The target of this assay is Factor IXa (Homo sapiens, UniProt P00740). In words: Determination of inhibitory activity against Factor IXa (cleavage of fluorescent peptide substrate). The class given is biochemical. Particulars: cleavage of fluorescent peptide CH3SO2-D-CHG-Gly-Arg-AFC, release of AFC; read-out: FIXa IC50. The procedure, abridged:
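Factor IXa activity followed via cleavage of CH3SO2-D-CHG-Gly-Arg-AFC, releasing AFC. Fluorescence read at excitation 405 nm, emission 510 nm.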
Factor IXa, sequence (P00740 227-461 limits assumed): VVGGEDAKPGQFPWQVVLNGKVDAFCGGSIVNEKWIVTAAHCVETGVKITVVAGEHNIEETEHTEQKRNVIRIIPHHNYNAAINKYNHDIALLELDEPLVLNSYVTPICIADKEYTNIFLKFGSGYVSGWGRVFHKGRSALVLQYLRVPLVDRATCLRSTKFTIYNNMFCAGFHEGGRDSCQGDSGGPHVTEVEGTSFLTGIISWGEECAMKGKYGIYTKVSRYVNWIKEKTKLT
Factor IXa, sequence (P00740 47-191 partner limits assumed): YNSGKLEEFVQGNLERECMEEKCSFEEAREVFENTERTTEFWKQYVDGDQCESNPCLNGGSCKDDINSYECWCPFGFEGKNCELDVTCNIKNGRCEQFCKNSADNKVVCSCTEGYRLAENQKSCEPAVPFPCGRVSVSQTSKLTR
Consider `C[C@](O)(C(=O)Nc1cc(Cl)c2c(N)noc2c1)[C@H]1OCCN(c2ccn(-c3ccncc3)n2)C1=O` [Example 119, (R)—N-(3-amino-4-chlorobenzo[d]isoxazol-6-yl)-2-hydroxy-2-((R)-3-oxo-4-(1-(pyridin-4-yl)-1H-pyrazol-3-yl)morpholin-2-yl)propanamide], for which the IC50 was found to be 0.224 µM. As to `C[C@](O)(C(=O)Nc1cc(Cl)c2c(N)noc2c1)[C@H]1OCCN(c2ccn(-c3ccnc(C(F)(F)F)c3)n2)C1=O` [Example 120, (R)—N-(3-amino-4-chlorobenzo[d]isoxazol-6-yl)-2-hydroxy-2-((R)-3-oxo-4-(1-(2-(trifluoromethyl)pyridin-4-yl)-1H-pyrazol-3-yl)morpholin-2-yl)propanamide], the IC50 is 1.05 µM. As for `C[C@](O)(C(=O)Nc1cc(Cl)c2c(N)noc2c1)[C@H]1OCCN(c2nn(-c3ccnc(C(F)(F)F)c3)cc2F)C1=O` [Example 121, (R)—N-(3-amino-4-chlorobenzo[d]isoxazol-6-yl)-2-((R)-4-(4-fluoro-1-(2-(trifluoromethyl)pyridin-4-yl)-1H-pyrazol-3-yl)-3-oxomorpholin-2-yl)-2-hydroxypropanamide], the figure is 0.193 µM; as for `C[C@](O)(C(=O)Nc1cc(Cl)c2c(N)noc2c1)[C@H]1OCCN(c2ccn(-c3ccnnc3)n2)C1=O` [Example 122, (R)—N-(3-amino-4-chlorobenzo[d]isoxazol-6-yl)-2-hydroxy-2-((R)-3-oxo-4-(1-(pyridazin-4-yl)-1H-pyrazol-3-yl)morpholin-2-yl)propanamide], 0.129 µM; as for `C[C@](O)(C(=O)Nc1cc(Cl)c2c(N)noc2c1)[C@H]1OCCN(c2nn(-c3ccnnc3)cc2F)C1=O` [Example 123, (R)—N-(3-amino-4-chlorobenzo[d]isoxazol-6-yl)-2-((R)-4-(4-fluoro-1-(pyridazin-4-yl)-1H-pyrazol-3-yl)-3-oxomorpholin-2-yl)-2-hydroxypropanamide], 0.0218 µM. For the molecule `C[C@](O)(C(=O)Nc1cc(Cl)c2c(N)noc2c1)[C@H]1OCCN(c2nn(-c3cnnc(C#N)c3)cc2F)C1=O` [Example 124, (R)—N-(3-amino-4-chlorobenzo[d]isoxazol-6-yl)-2-((R)-4-(1-(6-cyanopyridazin-4-yl)-4-fluoro-1H-pyrazol-3-yl)-3-oxomorpholin-2-yl)-2-hydroxypropanamide], the IC50 was determined as 0.158 µM. As to `COc1cc(-n2cc(F)c(N3CCO[C@H]([C@@](C)(O)C(=O)Nc4cc(Cl)c5c(N)noc5c4)C3=O)n2)cnn1` [Example 125, (R)—N-(3-amino-4-chlorobenzo[d]isoxazol-6-yl)-2-((R)-4-(4-fluoro-1-(6-methoxypyridazin-4-yl)-1H-pyrazol-3-yl)-3-oxomorpholin-2-yl)-2-hydroxypropanamide], the IC50 is 0.045 µM.

Consider `C[C@](O)(C(=O)Nc1cc(Cl)c2c(N)noc2c1)[C@H]1OCCN(c2nn(-c3cnnc(C(F)(F)F)c3)cc2F)C1=O` [Example 126, (R)—N-(3-amino-4-chlorobenzo[d]isoxazol-6-yl)-2-((R)-4-(4-fluoro-1-(6-(trifluoromethyl)pyridazin-4-yl)-1H-pyrazol-3-yl)-3-oxomorpholin-2-yl)-2-hydroxypropanamide], for which the 50% inhibitory concentration (IC50) turned out to be 0.0316 µM. On to `C[C@]1([C@@H](O)C(=O)Nc2cc(Cl)c3c(N)noc3c2)OCCN(c2ccn(-c3ccc(S(C)(=O)=O)cc3)n2)C1=O` [Example 127, (R)—N-(3-amino-4-chlorobenzo[d]isoxazol-6-yl)-2-hydroxy-2-((R)-2-methyl-4-(1-(4-(methylsulfonyl)phenyl)-1H-pyrazol-3-yl)-3-oxomorpholin-2-yl)acetamide], for which the IC50 is 0.746 µM. Regarding `C[C@]1([C@@H](O)C(=O)Nc2cc(Cl)c3c(N)noc3c2)OCCN(c2ccn(-c3ccncc3)n2)C1=O` [Example 128, (R)—N-(3-amino-4-chlorobenzo[d]isoxazol-6-yl)-2-hydroxy-2-((R)-2-methyl-3-oxo-4-(1-(pyridin-4-yl)-1H-pyrazol-3-yl)morpholin-2-yl)acetamide], the IC50 stood at 0.224 µM. As for `C[C@](O)(C(=O)Nc1cc(F)c2c(N)noc2c1)[C@H]1OCCN(c2ccn(-c3ccncc3)n2)C1=O` [Example 129, (R)—N-(3-amino-4-fluorobenzo[d]isoxazol-6-yl)-2-hydroxy-2-((R)-3-oxo-4-(1-(pyridin-4-yl)-1H-pyrazol-3-yl)morpholin-2-yl)propanamide], the figure is 0.0498 µM. As for `Cc1cc(-n2ccc(N3CCO[C@H]([C@@](C)(O)C(=O)Nc4cc(F)c5c(N)noc5c4)C3=O)n2)ccn1` [Example 130, (R)—N-(3-amino-4-fluorobenzo[d]isoxazol-6-yl)-2-hydroxy-2-((R)-4-(1-(2-methylpyridin-4-yl)-1H-pyrazol-3-yl)-3-oxomorpholin-2-yl)propanamide], the IC50 amounted to 0.211 µM. As for `C[C@](O)(C(=O)Nc1cc(F)c2c(N)noc2c1)[C@H]1OCCN(c2ccn(-c3ccnc(C(F)(F)F)c3)n2)C1=O` [Example 131, (R)—N-(3-amino-4-fluorobenzo[d]isoxazol-6-yl)-2-hydroxy-2-((R)-3-oxo-4-(1-(2-(trifluoromethyl)pyridin-4-yl)-1H-pyrazol-3-yl)morpholin-2-yl)propanamide], the figure is 0.0952 µM; as for `C[C@](O)(C(=O)Nc1cc(F)c2c(N)noc2c1)[C@H]1OCCN(c2ccn(-c3ccnc(C#N)c3)n2)C1=O` [Example 132, (R)—N-(3-amino-4-fluorobenzo[d]isoxazol-6-yl)-2-((R)-4-(1-(2-cyanopyridin-4-yl)-1H-pyrazol-3-yl)-3-oxomorpholin-2-yl)-2-hydroxypropanamide], 0.117 µM; as for `COc1cc(-n2ccc(N3CCO[C@H]([C@@](C)(O)C(=O)Nc4cc(F)c5c(N)noc5c4)C3=O)n2)ccn1` [Example 133, (R)—N-(3-amino-4-fluorobenzo[d]isoxazol-6-yl)-2-hydroxy-2-((R)-4-(1-(2-methoxypyridin-4-yl)-1H-pyrazol-3-yl)-3-oxomorpholin-2-yl)propanamide], 0.275 µM. As for `C[C@](O)(C(=O)Nc1cc(F)c2c(N)noc2c1)[C@H]1OCCN(c2nn(-c3ccncc3)cc2F)C1=O` [Example 134, (R)—N-(3-amino-4-fluorobenzo[d]isoxazol-6-yl)-2-((R)-4-(4-fluoro-1-(pyridin-4-yl)-1H-pyrazol-3-yl)-3-oxomorpholin-2-yl)-2-hydroxypropanamide], the IC50 was 0.0552 µM. In the case of `C[C@](O)(C(=O)Nc1cc(F)c2c(N)noc2c1)[C@H]1OCCN(c2ccn(-c3ccnnc3)n2)C1=O` [Example 135, (R)—N-(3-amino-4-fluorobenzo[d]isoxazol-6-yl)-2-hydroxy-2-((R)-3-oxo-4-(1-(pyridazin-4-yl)-1H-pyrazol-3-yl)morpholin-2-yl)propanamide], the IC50 worked out at 0.0102 µM. The figure for `C[C@](O)(C(=O)Nc1cc(F)c2c(N)noc2c1)[C@H]1OCCN(c2ccn(-c3cnnc(N4CCC4)c3)n2)C1=O` [Example 136, (R)—N-(3-amino-4-fluorobenzo[d]isoxazol-6-yl)-2-((R)-4-(1-(6-(azetidin-1-yl)pyridazin-4-yl)-1H-pyrazol-3-yl)-3-oxomorpholin-2-yl)-2-hydroxypropanamide] is 0.0532 µM. As for `CC(C)Oc1cc(-n2ccc(N3CCO[C@H]([C@@](C)(O)C(=O)Nc4cc(F)c5c(N)noc5c4)C3=O)n2)cnn1` [Example 137, (R)—N-(3-amino-4-fluorobenzo[d]isoxazol-6-yl)-2-hydroxy-2-((R)-4-(1-(6-isopropoxypyridazin-4-yl)-1H-pyrazol-3-yl)-3-oxomorpholin-2-yl)propanamide], the figure is 0.19 µM. As for `C[C@](O)(C(=O)Nc1cc(F)c2c(N)noc2c1)[C@H]1OCCN(c2ccn(-c3cnnc(C#N)c3)n2)C1=O` [Example 138, (R)—N-(3-amino-4-fluorobenzo[d]isoxazol-6-yl)-2-((R)-4-(1-(6-cyanopyridazin-4-yl)-1H-pyrazol-3-yl)-3-oxomorpholin-2-yl)-2-hydroxypropanamide], the figure is 0.00711 µM; as for `COc1cc(-n2ccc(N3CCO[C@H]([C@@](C)(O)C(=O)Nc4cc(F)c5c(N)noc5c4)C3=O)n2)cnn1` [Example 139, (R)—N-(3-amino-4-fluorobenzo[d]isoxazol-6-yl)-2-hydroxy-2-((R)-4-(1-(6-methoxypyridazin-4-yl)-1H-pyrazol-3-yl)-3-oxomorpholin-2-yl)propanamide], 0.014 µM. For `C[C@](O)(C(=O)Nc1cc(F)c2c(N)noc2c1)[C@H]1OCCN(c2nn(-c3ccnnc3)cc2F)C1=O` [Example 140, (R)—N-(3-amino-4-fluorobenzo[d]isoxazol-6-yl)-2-((R)-4-(4-fluoro-1-(pyridazin-4-yl)-1H-pyrazol-3-yl)-3-oxomorpholin-2-yl)-2-hydroxypropanamide], the IC50 was determined as 0.00561 µM. `COc1nccc(-n2ccc(N3CCO[C@H]([C@@](C)(O)C(=O)Nc4cc(F)c5c(N)noc5c4)C3=O)n2)n1` [Example 141, (R)—N-(3-amino-4-fluorobenzo[d]isoxazol-6-yl)-2-hydroxy-2-((R)-4-(1-(2-methoxypyrimidin-4-yl)-1H-pyrazol-3-yl)-3-oxomorpholin-2-yl)propanamide]: the IC50 was determined as 0.107 µM. As for `C[C@]1([C@@H](O)C(=O)Nc2cc(F)c3c(N)noc3c2)OCCN(c2ccn(-c3ccnnc3)n2)C1=O` [Example 142, (R)—N-(3-amino-4-fluorobenzo[d]isoxazol-6-yl)-2-hydroxy-2-((R)-2-methyl-3-oxo-4-(1-(pyridazin-4-yl)-1H-pyrazol-3-yl)morpholin-2-yl)acetamide], the IC50 amounted to 0.00627 µM. The figure for `COc1nccc(-n2ccc(N3CCO[C@](C)([C@@H](O)C(=O)Nc4cc(F)c5c(N)noc5c4)C3=O)n2)n1` [Example 143, (R)—N-(3-amino-4-fluorobenzo[d]isoxazol-6-yl)-2-hydroxy-2-((R)-4-(1-(2-methoxypyrimidin-4-yl)-1H-pyrazol-3-yl)-2-methyl-3-oxomorpholin-2-yl)acetamide] is 0.0221 µM; for `C[C@](O)(C(=O)Nc1cnc2c(N)noc2c1)[C@H]1OCCN(c2ccn(-c3ccncc3)n2)C1=O` [Example 144, (R)—N-(3-aminoisoxazolo[4,5-b]pyridin-6-yl)-2-hydroxy-2-((R)-3-oxo-4-(1-(pyridin-4-yl)-1H-pyrazol-3-yl)morpholin-2-yl)propanamide] it is 0.458 µM.
